Experimental data reported in patent US20260262643A1, “HERBICIDAL BENZOXAZINES” (FMC CORPORATION, priority 2022, published 2026).

What was measured:
[1] = tested on: soybean; assay: Test C preemergence; type: in vivo, Glycine max; details: for Soybean plant response rating: preemergence; for Plant response rating, Soybean: Preemergence
In short: (§1)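 Test material, in non-phytotoxic solvent with surfactant, was sprayed on the soil directly after seeding (preemergence) or on young plants of 2–10 cm with one to two leaves (postemergence). Greenhouse, 10 days; 0–100 visual control scale.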

[2] = tested on: pigweed, palmer; assay: Test C postemergence; type: in vivo, Amaranthus palmeri; details: 10 days
In short: as §1

[3] = tested on: green foxtail; assay: Test C preemergence; type: in vivo, Setaria viridis; details: for Foxtail, Green plant response rating: preemergence; for Plant response rating, Foxtail, Green: Preemergence
In short: as §1

[4] = tested on: horseweed; assay: Test C postemergence; type: in vivo, Erigeron canadensis; details: 10 days
In short: as §1

[5] = tested on: ryegrass, Italian; assay: Test C postemergence; type: in vivo, Lolium multiflorum; details: 10 days
In short: as §1

[6] = tested on: corn; assay: Test C postemergence; type: in vivo, Zea mays; details: 10 days
In short: as §1

[7] = tested on: ragweed; assay: Test C preemergence; type: in vivo, Ambrosia artemisiifolia; details: for Ragweed plant response rating: preemergence; for Plant response rating, Ragweed: Preemergence
In short: as §1

[8] = tested on: ryegrass, Italian; assay: Test C preemergence; type: in vivo, Lolium multiflorum; details: for Ryegrass, Italian plant response rating: preemergence; for Plant response rating, Ryegrass, Italian: Preemergence
In short: as §1

[9] = tested on: galium; assay: Test C postemergence; type: in vivo, Galium aparine; details: 10 days
In short: as §1

[10] = tested on: barnyardgrass; assay: Test D flooded paddy test; type: in vivo, Echinochloa crus-galli; details: 250 g ai/ha, applied to paddy water, visual rating after 13 to 14 days, scale 0 to 100 (0 no effect, 100 complete control)
In short: (§2)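 Compounds go straight into paddy water over 2-leaf plants in pots flooded to 3 cm. Greenhouse holding lasts 13 to 14 days. Injury is scored by eye against controls from 0 (none) to 100 (complete control).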

[11] = tested on: soybean; assay: Test C postemergence; type: in vivo, Glycine max; details: 10 days
In short: as §1

[12] = tested on: kochia; assay: Test C preemergence; type: in vivo, Bassia scoparia; details: for Kochia plant response rating: preemergence; for Plant response rating, Kochia: Preemergence
In short: as §1

[13] = tested on: wheat; assay: Test C preemergence; type: in vivo, Triticum aestivum; details: for Wheat plant response rating: preemergence; for Plant response rating, Wheat: Preemergence
In short: as §1

[14] = tested on: sedge, umbrella; assay: Test D flooded paddy test; type: in vivo, Cyperus difformis; details: 250 g ai/ha, applied to paddy water, visual rating after 13 to 14 days, scale 0 to 100 (0 no effect, 100 complete control)
In short: as §2

[15] = tested on: oat, wild; assay: Test C preemergence; type: in vivo, Avena fatua; details: for Oat, Wild plant response rating: preemergence; for Plant response rating, Oat, Wild: Preemergence
In short: as §1

[16] = tested on: ducksalad; assay: Test D flooded paddy test; type: in vivo, Heteranthera limosa; details: 250 g ai/ha, applied to paddy water, visual rating after 13 to 14 days, scale 0 to 100 (0 no effect, 100 complete control)
In short: as §2

[17] = tested on: barnyardgrass; assay: Test C postemergence; type: in vivo, Echinochloa crusgalli; details: 10 days
In short: as §1

[18] = tested on: green foxtail; assay: Test C postemergence; type: in vivo, Setaria viridis; details: 10 days
In short: as §1

[19] = tested on: barnyardgrass; assay: Test C preemergence; type: in vivo, Echinochloa crusgalli; details: for Barnyardgrass plant response rating: preemergence; for Plant response rating, Barnyardgrass: Preemergence
In short: as §1

[20] = tested on: wheat; assay: Test C postemergence; type: in vivo, Triticum aestivum; details: 10 days
In short: as §1

[21] = tested on: blackgrass; assay: Test C postemergence; type: in vivo, Alopecurus myosuroides; details: 10 days
In short: as §1

[22] = tested on: kochia; assay: Test C postemergence; type: in vivo, Bassia scoparia; details: 10 days
In short: as §1

[23] = tested on: oat, wild; assay: Test C postemergence; type: in vivo, Avena fatua; details: 10 days
In short: as §1

[24] = tested on: rice; assay: Test D flooded paddy test; type: in vivo, Oryza sativa; details: 250 g ai/ha, applied to paddy water, visual rating after 13 to 14 days, scale 0 to 100 (0 no effect, 100 complete control)
In short: as §2

[25] = tested on: ragweed; assay: Test C postemergence; type: in vivo, Ambrosia artemisiifolia; details: 10 days
In short: as §1

[26] = tested on: corn; assay: Test C preemergence; type: in vivo, Zea mays; details: for Corn plant response rating: preemergence; for Plant response rating, Corn: Preemergence
In short: as §1

[27] = tested on: pigweed, palmer; assay: Test C preemergence; type: in vivo, Amaranthus palmeri; details: for Pigweed, Palmer plant response rating: preemergence; for Plant response rating, Pigweed, Palmer: Preemergence
In short: as §1

[28] = tested on: blackgrass; assay: Test C preemergence; type: in vivo, Alopecurus myosuroides; details: for Blackgrass plant response rating: preemergence; for Plant response rating, Blackgrass: Preemergence
In short: as §1

[29] = 500 g ai/ha, 0 to 100 scale (0 no effect, 100 complete control)
[30] = 125 g ai/ha, 0 to 100 scale, 0 no effect, 100 complete control
[31] = 500 g ai/ha, postemergence, 0 to 100 scale (0 no effect, 100 complete control)
[32] = Postemergence, 125 g ai/ha, 0 to 100 scale (0 no effect, 100 complete control)
[33] = 500 g ai/ha, visual rating after 10 days, 0 to 100 scale (0 no effect, 100 complete control)
[34] = Test C, 125 g ai/ha, 0 to 100 scale (0 no effect, 100 complete control)
[35] = 125 g ai/ha, postemergence, 0 to 100 scale, 0 no effect, 100 complete control
[36] = Postemergence, 500 g ai/ha, visual 0 to 100 scale (0 no effect, 100 complete control)

CC(C)c1ncn(-c2ccc(OS(C)(=O)=O)c(C(=O)N3C[C@H](C)Oc4c(Cl)cccc43)c2)n1 [Compound 338]
10: Plant response rating, Horseweed [4, 32] | Plant response rating, Barnyardgrass (Flood) [10] | Plant response rating, Rice (Flood) [24] | Plant response rating, Corn [26, 30]
30: Plant response rating, Soybean [1, 30] | Plant response rating, Oat, Wild [15, 30] | Plant response rating, Barnyardgrass [17, 32] | Plant response rating, Foxtail, Green [18, 32] | Plant response rating, Ragweed [25, 32]
70: Plant response rating, Ryegrass, Italian [5, 32] | Plant response rating, Barnyardgrass [17, 31] | Plant response rating, Foxtail, Green [18, 31] | Plant response rating, Blackgrass [21, 31]
90: Plant response rating, Pigweed, Palmer [2, 32] | Plant response rating, Foxtail, Green [3, 30] | Plant response rating, Ryegrass, Italian [8, 30] | Plant response rating, Kochia [22, 32]
45: Plant response rating, Sedge, Umbrella (Flood) [14]
40: Plant response rating, Ducksalad (Flood) [16] | Plant response rating, Wheat [20, 31] | Plant response rating, Blackgrass [21, 32] | Plant response rating, Ragweed [25, 31]
80: Soybean plant response rating [1, 29] | Plant response rating, Ryegrass, Italian [5, 31] | Plant response rating, Corn [6, 31] | Plant response rating, Corn [6, 32] | Blackgrass plant response rating [28, 29]
20: Plant response rating, Horseweed [4, 31] | Wheat plant response rating [13, 29] | Plant response rating, Wheat [20, 32] | Plant response rating, Oat, Wild [23, 31] | Plant response rating, Oat, Wild [23, 32] | Plant response rating, Blackgrass [28, 30]
100: Plant response rating, Pigweed, Palmer [2, 31] | Foxtail, Green plant response rating [3, 29] | Ryegrass, Italian plant response rating [8, 29] | Plant response rating, Galium [9, 31] | Plant response rating, Galium [9, 32] | Plant response rating, Soybean [11, 31] | Plant response rating, Soybean [11, 32] | Kochia plant response rating [12, 29] | Barnyardgrass plant response rating [19, 29] | Plant response rating, Kochia [22, 31] | Pigweed, Palmer plant response rating [27, 29] | Plant response rating, Pigweed, Palmer [27, 30]
60: Plant response rating, Kochia [12, 30] | Plant response rating, Barnyardgrass [19, 30]
0: Ragweed plant response rating [7, 29] | Plant response rating, Ragweed [7, 30] | Plant response rating, Wheat [13, 30]
50: Oat, Wild plant response rating [15, 29] | Corn plant response rating [26, 29]

Cc1cc(-n2cnc(C(C)C)n2)cc(C(=O)N2C[C@H](C)Oc3c(Cl)cccc32)c1F [Compound 223]
40: Plant response rating, Ragweed [7, 33] | Plant response rating, Barnyardgrass [17, 36] | Plant response rating, Corn [26, 33] | Blackgrass plant response rating [28, 34]
20: Plant response rating, Horseweed [4, 35] | Plant response rating, Corn [6, 35] | Wheat plant response rating [13, 34] | Plant response rating, Barnyardgrass [17, 35]
60: Kochia plant response rating [12, 34] | Plant response rating, Foxtail, Green [18, 36]
50: Plant response rating, Ryegrass, Italian [5, 35] | Ragweed plant response rating [7, 34] | Oat, Wild plant response rating [15, 34]
95: Plant response rating, Sedge, Umbrella (Flood) [14]
30: Plant response rating, Horseweed [4, 36] | Plant response rating, Foxtail, Green [18, 35] | Plant response rating, Wheat [20, 36] | Plant response rating, Blackgrass [21, 35] | Plant response rating, Oat, Wild [23, 36]
90: Plant response rating, Pigweed, Palmer [2, 36] | Plant response rating, Ryegrass, Italian [5, 36] | Plant response rating, Ryegrass, Italian [8, 33] | Plant response rating, Wheat [13, 33] | Barnyardgrass plant response rating [19, 34] | Plant response rating, Kochia [22, 35] | Plant response rating, Kochia [22, 36] | Plant response rating, Blackgrass [28, 33]
80: Plant response rating, Pigweed, Palmer [2, 35] | Plant response rating, Corn [6, 36] | Ryegrass, Italian plant response rating [8, 34] | Plant response rating, Kochia [12, 33] | Plant response rating, Ducksalad (Flood) [16]
10: Soybean plant response rating [1, 34] | Plant response rating, Barnyardgrass (Flood) [10] | Plant response rating, Wheat [20, 35] | Plant response rating, Oat, Wild [23, 35] | Plant response rating, Rice (Flood) [24] | Plant response rating, Ragweed [25, 36]
100: Plant response rating, Foxtail, Green [3, 33] | Foxtail, Green plant response rating [3, 34] | Plant response rating, Galium [9, 35] | Plant response rating, Soybean [11, 35] | Plant response rating, Soybean [11, 36] | Plant response rating, Barnyardgrass [19, 33] | Plant response rating, Pigweed, Palmer [27, 33] | Pigweed, Palmer plant response rating [27, 34]
0: Plant response rating, Ragweed [25, 35] | Corn plant response rating [26, 34]
70: Plant response rating, Soybean [1, 33] | Plant response rating, Oat, Wild [15, 33] | Plant response rating, Blackgrass [21, 36]
